These molecules were tested against T1, HDAC6 enzyme (Homo sapiens, UniProt Q9UBN7) (assay: HDAC6 enzyme inhibitory activity (HDAC-Glo I/II Assay kit)). Settings: 10 μM; wells without enzyme = 100% inhibition; read-out: HDAC6 inhibitory rate (%) (10 μM).
T1 construct: transducing full length HDAC6 gene into Sf-9 insect cells; GST; purchased SignalChem; host or cells: Sf-9 insect cells
T1 sequence (Q9UBN7 1-1215): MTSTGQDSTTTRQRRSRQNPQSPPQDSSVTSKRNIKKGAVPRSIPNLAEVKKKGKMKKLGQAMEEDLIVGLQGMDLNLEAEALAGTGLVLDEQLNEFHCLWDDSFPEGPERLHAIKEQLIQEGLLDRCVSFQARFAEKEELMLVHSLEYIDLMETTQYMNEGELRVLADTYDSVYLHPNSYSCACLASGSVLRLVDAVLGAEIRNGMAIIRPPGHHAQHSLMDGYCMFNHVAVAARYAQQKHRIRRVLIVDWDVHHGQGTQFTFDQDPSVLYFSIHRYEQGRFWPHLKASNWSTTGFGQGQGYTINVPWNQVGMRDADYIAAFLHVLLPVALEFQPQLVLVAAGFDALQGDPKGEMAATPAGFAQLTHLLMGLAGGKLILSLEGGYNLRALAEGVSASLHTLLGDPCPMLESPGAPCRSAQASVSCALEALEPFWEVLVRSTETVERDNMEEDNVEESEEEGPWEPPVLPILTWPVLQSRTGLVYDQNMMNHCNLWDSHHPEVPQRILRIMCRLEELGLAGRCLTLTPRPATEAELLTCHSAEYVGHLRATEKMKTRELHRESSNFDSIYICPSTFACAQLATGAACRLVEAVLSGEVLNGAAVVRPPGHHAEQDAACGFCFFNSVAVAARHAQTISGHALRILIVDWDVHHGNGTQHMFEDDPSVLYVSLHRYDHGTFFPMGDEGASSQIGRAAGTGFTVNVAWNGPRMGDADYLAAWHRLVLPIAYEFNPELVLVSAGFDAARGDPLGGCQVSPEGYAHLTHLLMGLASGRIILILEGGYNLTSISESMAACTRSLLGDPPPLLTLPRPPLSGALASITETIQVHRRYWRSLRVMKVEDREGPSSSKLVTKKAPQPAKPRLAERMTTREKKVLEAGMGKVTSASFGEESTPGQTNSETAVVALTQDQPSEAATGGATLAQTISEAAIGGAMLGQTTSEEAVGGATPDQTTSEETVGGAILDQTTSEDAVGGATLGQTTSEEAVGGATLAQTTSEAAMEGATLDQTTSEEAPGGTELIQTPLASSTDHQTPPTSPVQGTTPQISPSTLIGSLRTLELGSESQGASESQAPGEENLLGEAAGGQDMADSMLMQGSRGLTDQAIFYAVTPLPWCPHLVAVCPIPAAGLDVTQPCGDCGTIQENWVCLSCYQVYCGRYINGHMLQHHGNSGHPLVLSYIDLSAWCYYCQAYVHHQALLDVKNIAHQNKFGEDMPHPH
Assay type: biochemical
In short: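 Test compound is preincubated 60 min at RT with full-length insect-cell HDAC6 in Tris-HCl pH 7.5 with 135 mM NaCl and 1 mM MgCl2. A 20 min room-temperature HDAC-Glo reaction follows, with luminescent read-out.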

Compound	inhibition at 10 µM
O=C1c2cc(-c3nnc(C(F)F)o3)cc(F)c2CN1c1ccccc1-c1cnn(C(F)F)c1 [Example 390, 6-(5-(difluoro-methyl)-1,3,4-oxadiazol-2-yl)-2-(2-(1-(difluoro-methyl)-1H-pyrazol-4-yl)phenyl)-4-fluoroisoindolin-1-one]	100%
N#Cc1cccc(-c2ncccc2N2Cc3ccc(-c4nnc(C(F)F)o4)cc3C2=O)c1 [Example 391, 3-(3-(6-(5-(difluoromethyl)-1,3,4-oxadiazol-2-yl)-1-oxo-1,3-dihydro-2H-isoindol-2-yl)pyridin-2-yl) benzonitrile]	100%
Cn1cc(-c2ccccc2N2Cc3c(F)cc(-c4nnc(C(F)F)o4)cc3C2=O)cn1 [Example 392, 6-(5-(difluoro-methyl)-1,3,4-oxadiazol-2-yl)-4-fluoro-2-(2-(1-methyl-1H-pyrazol-4-yl)phenyl) isoindolin-1-one]	99%
O=C1c2cc(-c3nnc(C(F)F)o3)cc(F)c2CN1c1ccccc1-c1cccc(F)c1 [Example 393, 6-(5-(difluoro-methyl)-1,3,4-oxadiazol-2-yl)-4-fluoro-2-(3′-fluorobiphenyl-2-yl)isoindolin-1-one]	99%
O=C1c2cc(-c3nnc(C(F)F)o3)cnc2CN1Cc1cccc(OC(F)F)c1 [Example 395, 6-(3-(difluoro-methoxy)benzyl)-3-(5-(difluoro-methyl)-1,3,4-oxadiazol-2-yl)-6,7-dihydro-5H-pyrrolo [3,4-b]pyridin-5-one]	99%
O=C1c2cc(-c3nnc(C(F)F)o3)ccc2CN1c1cccc(F)c1-c1cnn(C(F)F)c1 [Example 396, 6-(5-(difluoro-methyl)-1,3,4-oxadiazol-2-yl)-2-(2-(1-(difluoromethyl)-1H-pyrazol-4-yl)-3-fluorophenyl) isoindolin-1-one]	101%
O=C1c2cc(-c3nnc(C(F)F)o3)ccc2CN1c1cccc(F)c1-c1cccc(Cl)c1 [Example 397, 2-(3′-chloro-6-fluorobiphenyl-2-yl)-6-(5-(difluoro-methyl)-1,3,4-oxadiazol-2-yl) isoindolin-1-one]	100%
O=C1c2cc(-c3nnc(C(F)F)o3)ccc2CN1c1cccc(F)c1-c1cccc(F)c1 [Example 398, 2-(3′,6-difluoro-biphenyl-2-yl)-6-(5-(difluoro-methyl)-1,3,4-oxadiazol-2-yl) isoindolin-1-one]	102%
O=C1c2cc(-c3nnc(C(F)F)o3)cnc2CN1[C@@H]1CCOC[C@H]1NCC(F)(F)F [Example 400, 3-(5-(difluoro-methyl)-1,3,4-oxadiazol-2-yl)-6-((3S,4R)-3-((2,2,2-trifluoro-ethyl)amino)tetrahydro-2H-pyran-4-yl)-6,7-dihydro-5H-pyrrolo[3,4-b] pyridin-5-one]	99%
N#Cc1cccc(-c2c(Cl)cccc2N2Cc3ccc(-c4nnc(C(F)F)o4)cc3C2=O)c1 [Example 401, 2′-chloro-6′-(6-(5-(difluoro-methyl)-1,3,4-oxadiazol-2-yl)-1-oxo-1,3-dihydro-2H-isoindol-2-yl) biphenyl-3-carbonitrile]	99%
O=C1c2cc(-c3nnc(C(F)F)o3)cnc2CN1c1ccc(F)cc1Br [Example 406, 6-(2-bromo-4-fluorophenyl)-3-(5-(difluoromethyl)-1,3,4-oxadiazol-2-yl)-6,7-dihydro-5H-pyrrolo[3,4-b]pyridin-5-one]	100%
N#Cc1cccc(-c2cc(F)ccc2N2Cc3ncc(-c4nnc(C(F)F)o4)cc3C2=O)c1 [Example 407, 2′-(3-(5-(difluoro-methyl)-1,3,4-oxadiazol-2-yl)-5-oxo-5,7-dihydro-6H-pyrrolo[3,4-b]pyridin-6-yl)-5′-fluoro-biphenyl-3-carbonitrile]	99%
Cn1cc(-c2cc(F)ccc2N2Cc3ncc(-c4nnc(C(F)F)o4)cc3C2=O)cn1 [Example 411, 3-(5-(difluoro-methyl)-1,3,4-oxadiazol-2-yl)-6-(4-fluoro-2-(1-methyl-1H-pyrazol-4-yl)phenyl)-6,7-dihydro-5H-pyrrolo[3,4-b] pyridin-5-one]	100%
Cn1nc(C(F)(F)F)cc1-c1cc(F)ccc1N1Cc2ncc(-c3nnc(C(F)F)o3)cc2C1=O [Example 412, 3-(5-(difluoro-methyl)-1,3,4-oxadiazol-2-yl)-6-(4-fluoro-2-(1-methyl-3-(trifluoro-methyl)-1H-pyrazol-5-yl)phenyl)-6,7-dihydro-5H-pyrrolo[3,4-b] pyridin-5-one]	100%

Now from value to molecule:

inhibition at 10 µM	Compound
99%	Cn1nc(C(F)(F)F)cc1-c1ccccc1N1Cc2c(F)cc(-c3nnc(C(F)F)o3)cc2C1=O [Example 394, 6-(5-(difluoro-methyl)-1,3,4-oxadiazol-2-yl)-4-fluoro-2-(2-(1-methyl-3-(trifluoro-methyl)-1H-pyrazol-5-yl)phenyl) isoindolin-1-one]
101%	O=C1c2cc(-c3nnc(C(F)F)o3)ccc2CN1[C@@H]1CCOC[C@H]1NCC(F)(F)F [Example 399, 6-(5-(difluoromethyl)-1,3,4-oxadiazol-2-yl)-2-((3S,4R)-3-((2,2,2-trifluoroethyl)amino)tetrahydro-2H-pyran-4-yl)isoindolin-1-one]
100%	O=C1c2cc(-c3nnc(C(F)F)o3)ccc2CN1c1cccc(Cl)c1-c1cnn(C(F)F)c1 [Example 402, 2-(3-chloro-2-(1-(difluoro-methyl)-1H-pyrazol-4-yl)phenyl)-6-(5-(difluoro-methyl)-1,3,4-oxadiazol-2-yl) isoindolin-1-one]
102%	Cn1cc(-c2c(Cl)cccc2N2Cc3ccc(-c4nnc(C(F)F)o4)cc3C2=O)cn1 [Example 403, 2-(3-chloro-2-(1-methyl-1H-pyrazol-4-yl)phenyl)-6-(5-(difluoro-methyl)-1,3,4-oxadiazol-2-yl) isoindolin-1-one]
100%	O=C1c2cc(-c3nnc(C(F)F)o3)ccc2CN1c1cccc(Cl)c1-c1cccc(F)c1 [Example 404, 2-(6-chloro-3′-fluoro-biphenyl-2-yl)-6-(5-(difluoro-methyl)-1,3,4-oxadiazol-2-yl) isoindolin-1-one]
101%	O=C1c2cc(-c3nnc(C(F)F)o3)ccc2CN1c1ccc(Cl)cc1-c1cnn(C(F)F)c1 [Example 405, 2-(4-chloro-2-(1-(difluoro-methyl)-1H-pyrazol-4-yl)phenyl)-6-(5-(difluoro-methyl)-1,3,4-oxadiazol-2-yl) isoindolin-1-one]
99%	O=C1c2cc(-c3nnc(C(F)F)o3)cnc2CN1c1ccc(F)cc1-c1cnn(C(F)F)c1 [Example 408, 3-(5-(difluoro-methyl)-1,3,4-oxadiazol-2-yl)-6-(2-(1-(difluoro-methyl)-1H-pyrazol-4-yl)-4-fluorophenyl)-6,7-dihydro-5H-pyrrolo[3,4-b] pyridin-5-one]
99%	O=C1c2cc(-c3nnc(C(F)F)o3)cnc2CN1c1ccc(F)cc1-c1cccc(F)c1 [Example 409, 6-(3′,5-difluoro-biphenyl-2-yl)-3-(5-(difluoro-methyl)-1,3,4-oxadiazol-2-yl)-6,7-dihydro-5H-pyrrolo [3,4-b]pyridin-5-one]
101%	O=C1c2cc(-c3nnc(C(F)F)o3)cnc2CN1c1ccc(F)cc1-c1cccc(Cl)c1 [Example 410, 6-(3′-chloro-5-fluoro-biphenyl-2-yl)-3-(5-(difluoro-methyl)-1,3,4-oxadiazol-2-yl)-6,7-dihydro-5H-pyrrolo [3,4-b]pyridin-5-one]
98%	CC(C)(C)OC(=O)N[C@H]1COCC[C@H]1N1Cc2ccc(-c3nnc(C(F)F)o3)cc2C1=O [Example 413, tert-butyl ((3R,4R)-4-(6-(5-(difluoro-methyl)-1,3,4-oxadiazol-2-yl)-1-oxo-1,3-dihydro-2H-isoindol-2-yl)tetrahydro-2H-pyran-3-yl) carbamate]
87%	N[C@H]1COCC[C@H]1N1Cc2ccc(-c3nnc(C(F)F)o3)cc2C1=O [Example 414, 2-((3R,4R)-3-aminotetra-hydro-2H-pyran-4-yl)-6-(5-(difluoro-methyl)-1,3,4-oxadiazol-2-yl) isoindolin-1-one]

— patent US10435399B2, “HDAC6 inhibitory heterocyclic compound” (TAKEDA PHARMACEUTICAL COMPANY LIMITED, priority 2017, dated 2019)
